According to patent US20170050957A1, “4-AMINO-6-(HETEROCYCLIC)PICOLINATES AND 6-AMINO-2-(HETEROCYCLIC)PYRIMIDINE-4-CARBOXYLATES AND THEIR USE AS HERBICIDES” (Dow AgroSciences LLC, priority 2013, published 2017):
Read-outs that look alike come from different tables or passages of the source.

Key:
[1] = system: Key Broadleaf Weed and Crop Species; assay: Post-emergent Test II herbicidal activity (Table 15); assay type: in vivo; details: post-emergence, 336 h, 14 d; for pest or weed control at 35 g/ha: 35 g ai/ha; for pest or weed control at 70 g/ha: 70 g ai/ha; for pest or weed control at 140 g/ha: 140 g ai/ha
Outline: (§1)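 Herbicidal effect scored as percent visual injury, 14 d after post-emergent application. Spray solutions contained acetone, DMSO, isopropyl alcohol, crop oil concentrate and surfactant, applied at 187 L/ha to young plants (1-2 true leaves).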

[2] = system: Key Grass and Sedge Weeds as well as Grass Crops; assay: Post-emergent Test II herbicidal activity (Table 16); assay type: in vivo; details: post-emergence, 336 h, 14 d; for pest or weed control at 35 g/ha: 35 g ai/ha; for pest or weed control at 70 g/ha: 70 g ai/ha; for pest or weed control at 140 g/ha: 140 g ai/ha
Outline: as §1

[3] = Abutilon theophrasti, velvetleaf (Abutilon theophrasti), read-out: Visual Growth Reduction (%) 14 Days After Application, ABUTH
[4] = Amaranthus retroflexus, redroot pigweed (Amaranthus retroflexus), read-out: Visual Growth Reduction (%) 14 Days After Application, AMARE
[5] = Brassica napus, oilseed rape, canola (Brassica napus), read-out: Visual Growth Reduction (%) 14 Days After Application, BRSNN
[6] = Chenopodium album, lambsquarters (Chenopodium album), read-out: Visual Growth Reduction (%) 14 Days After Application, CHEAL
[7] = Euphorbia heterophylla, wild poinsettia (Euphorbia heterophylla), read-out: Visual Growth Reduction (%) 14 Days After Application, EPHHL
[8] = Helianthus annuus, sunflower (Helianthus annuus), read-out: Visual Growth Reduction (%) 14 Days After Application, HELAN
[9] = Cyperus esculentus, yellow nutsedge (Cyperus esculentus), read-out: Visual Growth Reduction (%) 14 Days After Application, CYPES
[10] = Echinochloa crus-galli, barnyardgrass (Echinochloa crus-galli), read-out: Visual Growth Reduction (%) 14 Days After Application, ECHCG
[11] = Oryza sativa, rice (Oryza sativa), read-out: Visual Growth Reduction (%) 14 Days After Application, ORYSA
[12] = Setaria faberi, giant foxtail (Setaria faberi), read-out: Visual Growth Reduction (%) 14 Days After Application, SETFA
[13] = Triticum aestivum, wheat, spring (Triticum aestivum), read-out: Visual Growth Reduction (%) 14 Days After Application, TRZAS
[14] = Zea mays, maize, corn (Zea mays), read-out: Visual Growth Reduction (%) 14 Days After Application, ZEAMX

Row | Structure (SMILES) | pest or weed control at 35 g/ha [1, 3] [%] | pest or weed control at 70 g/ha [1, 3] [%] | pest or weed control at 140 g/ha [1, 3] [%] | pest or weed control at 140 g/ha [1, 4] [%] | pest or weed control at 35 g/ha [1, 5] [%] | pest or weed control at 70 g/ha [1, 5] [%] | pest or weed control at 140 g/ha [1, 5] [%] | pest or weed control at 35 g/ha [1, 6] [%] | pest or weed control at 70 g/ha [1, 6] [%] | pest or weed control at 140 g/ha [1, 6] [%] | pest or weed control at 35 g/ha [1, 7] [%] | pest or weed control at 70 g/ha [1, 7] [%] | pest or weed control at 140 g/ha [1, 7] [%] | pest or weed control at 35 g/ha [1, 8] [%] | pest or weed control at 70 g/ha [1, 8] [%] | pest or weed control at 140 g/ha [1, 8] [%] | melting point [°C] | pest or weed control at 35 g/ha [2, 9] [%] | pest or weed control at 70 g/ha [2, 9] [%] | pest or weed control at 140 g/ha [2, 9] [%] | also measured
1 | COC(=O)c1nc(-c2ccc3c(ccn3C)c2)c(F)c(N)c1Cl [Compound 1.03] | 0 to 29 | 0 to 29 | 75 to 84 | 85 to 94 | 0 to 29 | 0 to 29 | 0 to 29 | 85 to 94 | 85 to 94 | 95 to 100 | 95 to 100 | 95 to 100 | 85 to 94 | 0 to 29 | 0 to 29 | 45 to 59 | 125 to 127 | 0 to 29 | 0 to 29 | 0 to 29 | pest or weed control at 35 g/ha [2, 10]: 0 to 29%; pest or weed control at 70 g/ha [2, 10]: 0 to 29%; pest or weed control at 140 g/ha [2, 10]: 60 to 74%; pest or weed control at 35 g/ha [2, 11]: 0 to 29%; pest or weed control at 70 g/ha [2, 11]: 0 to 29%; pest or weed control at 140 g/ha [2, 11]: 0 to 29%; pest or weed control at 35 g/ha [2, 12]: 0 to 29%; pest or weed control at 70 g/ha [2, 12]: 0 to 29%; pest or weed control at 140 g/ha [2, 12]: 0 to 29%; pest or weed control at 35 g/ha [2, 13]: 0 to 29%; pest or weed control at 70 g/ha [2, 13]: 0 to 29%; pest or weed control at 140 g/ha [2, 13]: 0 to 29%; pest or weed control at 35 g/ha [2, 14]: 0 to 29%; pest or weed control at 70 g/ha [2, 14]: 0 to 29%; pest or weed control at 140 g/ha [2, 14]: 0 to 29%
2 | Nc1c(F)c(-c2ccc3[nH]ccc3c2)nc(C(=O)O)c1Cl [Compound 1.04] | 45 to 59 | 0 to 29 | 0 to 29 | 60 to 74 | 30 to 44 | 45 to 59 | 45 to 59 | 45 to 59 | 60 to 74 | 60 to 74 | 95 to 100 | 95 to 100 | 95 to 100 | 45 to 59 | 45 to 59 | 85 to 94 | 180 to 182 | 0 to 29 | 0 to 29 | 0 to 29 | pest or weed control at 35 g/ha [1, 4]: 60 to 74%; pest or weed control at 70 g/ha [1, 4]: 60 to 74%; pest or weed control at 35 g/ha [2, 10]: 0 to 29%; pest or weed control at 140 g/ha [2, 10]: 85 to 94%; pest or weed control at 35 g/ha [2, 11]: 0 to 29%; pest or weed control at 70 g/ha [2, 11]: 0 to 29%; pest or weed control at 140 g/ha [2, 11]: 0 to 29%; pest or weed control at 35 g/ha [2, 12]: 0 to 29%; pest or weed control at 70 g/ha [2, 12]: 0 to 29%; pest or weed control at 140 g/ha [2, 12]: 0 to 29%; pest or weed control at 35 g/ha [2, 13]: 0 to 29%; pest or weed control at 70 g/ha [2, 13]: 0 to 29%; pest or weed control at 140 g/ha [2, 13]: 0 to 29%; pest or weed control at 35 g/ha [2, 14]: 0 to 29%; pest or weed control at 70 g/ha [2, 14]: 0 to 29%; pest or weed control at 140 g/ha [2, 14]: 0 to 29%
